Data taken from patent US20240382558A1, “PHARMACEUTICAL COMPOSITION FOR PREVENTING OR TREATING INTERSTITIAL CYSTITIS/BLADDER PAIN SYNDROME” (priority 2022, published 2024).

Columns and labels:
[1] = system: IC/BPS model rats; assay: Cystometry (intravesical pressure and urination volume) in HCl-induced IC/BPS model rats; type: in vivo, rat
Protocol: Through the catheter, 250 μL of saline (Sham group) or 250 μL of 0.1 M HCl (IC group) was instilled into the bladder and held for 1 minute, and then the bladder was washed twice with saline. The Sham and IC groups were each divided into two groups (n=7-8/group), and 200 μL of saline or 200 μL of RGDS peptide solution (500 mg/L saline solution, MedChemExpress) was administered intraperitoneally. On day 7 after administration, a polyethylene catheter was inserted and retained in the apex of the bladder, and a pressure transducer (MLT0699, ADInstruments Ltd, Dunedin, New Zealand), PowerLab 4/26 (ADInstruments Ltd, Dunedin New Zealand) were connected. A syringe pump (YSP-101, YMC Co., Ltd., Kyoto, Japan) was connected to the pressure transducer to measure intravesical pressure and urination volume while continuously instilling 40 μL/min saline solution into the bladder. The pressure at the urination event peak on the cystometrogram was defined as the maximum intravesical pressure, the peak interval as the urination interval, the pressure immediately after the peak as the basal intravesical pressure, the pressure immediately before the peak as the threshold pressure for urination, and the urination volume at the peak as urine volume per urination event.
A similar study to Example 1 was conducted, except that the RGDS peptide used in Example 1 was replaced with 400 μL of cilengitide solution (6.75 g/L saline solution, Tokyo Kasei). In the cilengitide-administered group, the urination interval was prolonged compared to the group that received instillation of saline (FIG. 3), confirming that frequent urination was ameliorated.

[2] = system: IC/BPS model rats; assay: Pain threshold by electronic von Frey filament on lower abdomen in IC/BPS model rats; type: in vivo, rat; conditions: IC+R group vs IC group; day 5 after administration; average of three measurements; FIG. 4
Protocol: Sham, IC, and IC+R groups were prepared as in Example 1. On day 5 after administration, the rats were placed in a metabolic cage with a wire mesh bottom and allowed to acclimate for 10 minutes, and the lower abdomen was stimulated with increasing pressure using an electronic von Frey filament (BIO-EVF, Bioseb, Vitrolles, France). The pressure at which an escape response was observed was measured as the pain threshold. This measurement was repeated three times with a 5-minute interval, and the average was calculated. The pain threshold increased in the IC+R group compared to the IC group (FIG. 4), confirming an ameliorating trend of pain.

[3] = among Sham, Sham+R, IC, IC+R groups, 200 μL RGDS peptide solution (500 mg/L) intraperitoneally, day 7

`CC(C)[C@H]1C(=O)N[C@@H](CCCN=C(N)N)C(=O)NCC(=O)N[C@@H](CC(=O)O)C(=O)N[C@H](Cc2ccccc2)C(=O)N1C` [cilengitide] was tested, and the urination interval ([1]; cilengitide-administered IC group vs saline group, 400 μL cilengitide solution (6.75 g/L saline), FIG. 3) was “prolonged”.
For RGDS [RGDS peptide], the urination interval ([1]; IC+R group vs IC group given saline, 200 μL RGDS peptide solution (500 mg/L saline) intraperitoneally, day 7 after administration, FIGS. 1 and 2) was “significantly prolonged”, the basal intravesical pressure [1, 3] was “did not differ among all groups” and the maximum intravesical pressure [1, 3] was “did not differ among all groups”. For the same compound, the “threshold pressure for urination” value [1, 3] was “did not differ among all groups” and the “pain threshold (pressure at which an escape response was observed)” value [2] was “increased”.
